The text below walks through data of patent US10611740B2, “Aryl dihydro-2H-benzo[b][1,4]oxazine sulfonamide and related compounds for use as agonists of RORγ and the treatment of disease” (Lycera Corporation, priority 2015, dated 2020).

For one assay, the target named is T1, Gal4-RORγ-LBD (Homo sapiens, UniProt P51449).
T1 construct: expressed in transfected cells; host or cells: HEK-293 cells (pcDNA3.1neo plasmid)
T1 sequence (P51449 269-508 limits assumed): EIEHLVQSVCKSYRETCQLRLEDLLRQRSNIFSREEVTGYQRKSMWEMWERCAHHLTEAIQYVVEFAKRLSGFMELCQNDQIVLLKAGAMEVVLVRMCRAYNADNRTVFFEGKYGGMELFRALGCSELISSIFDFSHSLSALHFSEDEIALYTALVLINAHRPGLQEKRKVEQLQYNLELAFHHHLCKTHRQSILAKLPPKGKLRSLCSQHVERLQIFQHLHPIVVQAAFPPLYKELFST
The assay can be described thus: Gal4-RORγ Luciferase Reporter Assay in HEK-293T Cells. In kind it is cell-based. Conditions: HEK-293 cells, luciferase reporter, with 2 μM ursolic acid. An outline of the steps: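 Luminescence read-out (One-Glo, 10 min RT) after overnight compound exposure at 37 °C in HEK-293 cells carrying Gal4-RORγ-LBD plus a Gal4-luciferase reporter, in the presence of 2 μM ursolic acid. Max Response is the upper plateau from a 4-parameter logistic fit, normalized to untreated signal = 100.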

The next assay has as its target T2, RORγ-LBD (Homo sapiens, UniProt P51449).
T2 construct: made in house; host or cells: SF9 cells (baculovirus)
T2 sequence (P51449 269-508 limits assumed): T1 sequence (P51449 269-508 limits assumed)
The assay can be described thus: RORγ-Ligand Binding Domain (LBD) TR-FRET Assay.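 On TR-FRET Assay Max Response: 665/615 nm ratio relative to signal without ursolic acid or compound set at 100.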 In kind it is biochemical. An outline of the steps: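 This TR-FRET coactivator assay pairs baculovirus-expressed His-RORγ-LBD (~3 nM final) with biotin-SRC1 LXXLL peptide at 200 nM final in pH 7.0 Tris/KCl/EDTA/DTT/BSA buffer.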

For `COc1cc(F)cc(-c2ccc3c(c2)N(S(=O)(=O)c2cccc(C(F)(F)F)c2)C[C@H](CC(C)(C)C(=O)O)O3)c1F` [Compound 32C, (S)-3-(6-(2,5-difluoro-3-methoxyphenyl)-4-((3-(trifluoromethyl)phenyl)sulfonyl)-3,4-dihydro-2H-benzo[b][1,4]oxazin-2-yl)-2,2-dimethylpropanoic acid], at Gal4-RORγ-LBD, the EC50 is below 500 nM and the “Gal4-RORγ Assay Max Response” value is recorded as “** (The symbol “**” indicates a value in the range of greater than 90 to 150)”. Further, at RORγ-LBD, the concentration giving a half-maximal response (EC50) was below 500 nM and the “TR-FRET Assay Max Response” value is on record as “**** (The symbol “****” indicates a value greater than 200)”.
For the compound `O=C(CC[C@H]1CN(S(=O)(=O)c2cccc(C(F)(F)F)c2)c2cc(-c3cccc(C(F)(F)F)n3)ccc2O1)N1CCS(=O)(=O)CC1` [Compound 23G, (S)-1-(1,1-dioxidothio-morpholino)-3-(4-((3-(trifluoro-methyl)phenyl)sulfonyl)-6-(6-(trifluoromethyl)pyridin-2-yl)-3,4-dihydro-2H-benzo[b][1,4]-oxazin-2-yl)propan-1-one], at Gal4-RORγ-LBD, the concentration giving a half-maximal response (EC50) is below 500 nM and the “Gal4-RORγ Assay Max Response” value was “** (The symbol “**” indicates a value in the range of greater than 90 to 150)”. Besides, at RORγ-LBD, the EC50 was below 500 nM and the “TR-FRET Assay Max Response” value is reported as “**** (The symbol “****” indicates a value greater than 200)”.
For the compound `CCn1cc(S(=O)(=O)N2C[C@H](CCC(=O)O)Oc3ccc(-c4cccc(Cl)c4)cc32)c(Cl)n1` [Compound 6C, (S)-3-(4-((3-chloro-1-ethyl-1H-pyrazol-4-yl)sulfonyl)-6-(3-chlorophenyl)-3,4-dihydro-2H-benzo[b][1,4]oxazin-2-yl)propanoic acid], on Gal4-RORγ-LBD, the EC50 is 500 to 5000 nM and the “Gal4-RORγ Assay Max Response” value is on record as “** (The symbol “**” indicates a value in the range of greater than 90 to 150)”. At RORγ-LBD, the concentration giving a half-maximal response (EC50) is below 500 nM and the “TR-FRET Assay Max Response” value is “**** (The symbol “****” indicates a value greater than 200)”.
Regarding `O=C(CC[C@H]1CN(S(=O)(=O)c2cccc(C(F)(F)F)c2)c2cc(-c3cccc(Cl)c3)ccc2O1)N1CCS(=O)(=O)CC1` [Compound 23A, (S)-3-(6-(3-chlorophenyl)-4-((3-(trifluoromethyl)phenyl)sulfonyl)-3,4-dihydro-2H-benzo[b][1,4]-oxazin-2-yl)-1-(1,1-dioxidothio-morpholino)propan-1-one], on Gal4-RORγ-LBD, the EC50 is below 500 nM and the “Gal4-RORγ Assay Max Response” value was “** (The symbol “**” indicates a value in the range of greater than 90 to 150)”. Moreover, at RORγ-LBD, the half-maximal effective concentration (EC50) was below 500 nM and the “TR-FRET Assay Max Response” value is given as “**** (The symbol “****” indicates a value greater than 200)”.
With `O=C(CC[C@H]1CN(S(=O)(=O)c2cccc(C(F)(F)F)c2)c2cc(-c3cccc(F)c3F)ccc2O1)N1CCS(=O)(=O)CC1` [Compound 23N, (S)-3-(6-(2,3-difluorophenyl)-4-((3-(trifluoromethyl)-phenyl)sulfonyl)-3,4-dihydro-2H-benzo[b][1,4]oxazin-2-yl)-1-(1,1-dioxidothiomorpholino)propan-1-one], at Gal4-RORγ-LBD, the EC50 was below 500 nM and the “Gal4-RORγ Assay Max Response” value was “*** (The symbol “***” indicates a value in the range of greater than 150 to 200)”. Besides, on RORγ-LBD, the EC50 is below 500 nM and the “TR-FRET Assay Max Response” value was “**** (The symbol “****” indicates a value greater than 200)”.
Consider `COc1cc(F)cc(-c2ccc3c(c2)N(S(=O)(=O)c2cccc(C(F)(F)F)c2)C[C@H](CNC(=O)C(C)(C)O)O3)c1F` [Compound 30L, (S)-N-((6-(2,5-difluoro-3-methoxyphenyl)-4-((3-(trifluoromethyl)phenyl)sulfonyl)-3,4-dihydro-2H-benzo[b][1,4]oxazin-2-yl)methyl)-2-hydroxy-2-methylpropanamide], for which, on Gal4-RORγ-LBD, the EC50 is below 500 nM and the “Gal4-RORγ Assay Max Response” value was “* (The symbol “*” indicates a value in the range of 25 to 90)”. Besides, at RORγ-LBD, the half-maximal effective concentration (EC50) is below 500 nM and the “TR-FRET Assay Max Response” value is “**** (The symbol “****” indicates a value greater than 200)”.
